Measurements as given in US8993606B2, “Oral formulations for treating metal overload” (FerroKin BioSciences, Inc., priority 2011, dated 2015).
Where two headings read alike, the source gives them in different places.

Assays:
[1] = Example 5: single-dose study in iron-overloaded human subjects (PK); assay type: in vivo; conditions: for Tmax / AUC(0-inf) / AUC(0-t) / Cmax / half-life: human, plasma
Method: Example 5 was a single-dose, escalating study in iron-overloaded subjects. Men between the ages of 18-50 years qualified to participate if they were able to voluntarily give consent and had transfusional overload requiring treatment with an iron chelator and were willing to discontinue their chelation for a period of at least 7 days prior to screening and during the study. Eligible subjects had serum ferritin levels>300 ng/mL and ≦5000 ng/mL. Subjects had blood pressure in the normal range, ECG within normal limits and tested negative for drugs of abuse. Subjects were also HIV and Hepatitis B negative and agreed to use an approved method of contraception during the study.
(§1) The objectives of this study were to assess the safety, tolerability, and pharmacokinetics of ascending single doses of Compound 1. Additionally, dose proportionality and pharmacodynamics of Compound 1 were assessed. Four doses of Compound 1 (6, 10, 16, and 32 mg/kg), in capsule form, were evaluated in this study. Each dose level was tested in a single subject, with appropriate evaluation of safety done prior to escalating the dose. Following screening, the first subject was dosed and then confined to the clinical research unit for 24 hours to conduct safety and pharmacokinetic assessments. The subject was released from the clinic on Day 2 and returned daily for follow-up visits for 5 days post-dosing. This process was followed for each dose level.
All 4 subjects who received a dose of Compound 1 were included in the analysis of pharmacokinetic parameters.

[2] = tested on: healthy adult subjects; assay: Safety: bioavailability study oral capsules versus oral solution in healthy subjects; assay type: in vivo
Method: This study was a study in healthy adult subjects designed to compare the bioavailability of Compound 1 when administered as an oral capsule or solution. 24 subjects were enrolled and 22 completed the study: Subjects received a single oral dose of 16 mg/kg of Compound 1 as an oral capsule or as a solution. […] Treatment-emergent AEs were reported for 14 of the 24 subjects receiving Compound 1 (58%). […] TEAEs included headache (3 subjects), fever (2 subjects), nausea (2 subjects), lethargy (2 subjects), and loss of appetite (1 subject).

[3] = Relative humidity stress (deliquescence, hygroscopicity); assay type: physicochemical
[4] = tested on: adult subjects with documented transfusional iron overload; assay: Safety: ongoing randomized open-label study, 16 or 32 mg/kg/day, transfusional iron overload; assay type: in vivo, human
Method: This study is an ongoing multicenter, randomized, open-label study of adult subjects with documented transfusional iron overload in need of chelation therapy. Subjects received investigational product for 24 weeks with an extension of 72 weeks for the evaluation of long-term safety and efficacy. Subjects were stratified according to transfusional iron intake (transfusion burden) then randomized to receive Compound 1 at 16 or 32 mg/kg/day. The investigational product was administered orally once daily for 24 weeks. At the conclusion of the 24-week dosing period, qualified subjects were allowed to continue receiving Compound 1 for an additional 72 weeks. Dose adjustments from 24 weeks onward are permitted if clinically indicated. Fifty-one subjects enrolled and completed the first 24 weeks of the study; 49 subjects entered the 72-week extension.

[5] = tested on: iron overloaded subjects; assay: Safety: single-dose Phase 1 study in iron-overloaded subjects; assay type: in vivo
Method: as §1
Four iron overloaded subjects were enrolled and completed the study. Each subject received a single oral dose of Compound 1. Doses were 6, 10, 16 and 32 mg/kg. […] Three TEAEs were reported for a single subject who received 32 mg/kg of Compound 1. All 3 TEAEs occurred at the site of venipuncture used for blood sampling: bruising at cannula site on the left arm and bruising at 2 venipuncture sites on the left arm and then the right arm.

[6] = single oral dose 6 mg/kg, subject 1
[7] = single oral dose 10 mg/kg, subject 2
[8] = single oral dose 16 mg/kg, subject 3
[9] = single oral dose 32 mg/kg, subject 4

## COCCOCCOCCOc1cccc(C2=N[C@@](C)(C(=O)O)CS2)c1O [Compound 1, (S)-4,5-Dihydro-2-[2-hydroxy-3-(3,6,9-trioxadecyloxy)phenyl]-4-methyl-4-thiazolecarboxylate magnesium hydroxide]
[1]; 4 dose levels
  total fraction of oral dose excreted in urine over 24 hour, average: 39%
[1]; 6-32 mg/kg dose range
  dose proportionality of Cmax and AUC: dose-proportional
[1]; all subjects, 6, 10, 16 and 32 mg/kg
  plasma concentrations at 24 hours post-dose: < 1 % of Cmax
[1]; single oral dose 6 mg/kg (360 mg), subject 1, read-out: tmax
  Tmax: 1 h
[1]; [6]
  AUC(0-inf): 46300 ng·h/mL
  AUC(0-t): 45900 ng·h/mL
  Cmax: 14900 ng/mL
  CL/F: 7.9 L/h
[1]; single oral dose 10 mg/kg (583 mg), subject 2, read-out: tmax
  Tmax: 0.77 h
[1]; [7]
  AUC(0-inf): 69700 ng·h/mL
  AUC(0-t): 69200 ng·h/mL
  Cmax: 35400 ng/mL
  CL/F: 8.4 L/h
[1]; single oral dose 16 mg/kg (1288 mg), subject 3, read-out: tmax
  Tmax: 1 h
[1]; [8]
  AUC(0-inf): 122000 ng·h/mL
  AUC(0-t): 122000 ng·h/mL
  Cmax: 38500 ng/mL
  CL/F: 10.6 L/h
[1]; single oral dose 32 mg/kg (2214.4 mg), subject 4, read-out: tmax
  Tmax: 1 h
[1]; [9]
  AUC(0-inf): 159000 ng·h/mL
  AUC(0-t): 157000 ng·h/mL
  Cmax: 47600 ng/mL
  CL/F: 14.1 L/h
[1]; male, oral, 6-32 mg/kg single dose, read-out: terminal half-life, range
  half-life: 16 to 30 h
[1]; male, oral, averaged across all dose levels, read-out: mean t1/2 (converted)
  half-life: 23.7 h
[1]; male, oral, averaged across all dose levels, read-out: mean tmax
  Tmax: 0.925 h
[1]; range across the 4 dose levels
  total fraction of oral dose excreted in urine over 24 hour: 28-51%
[2]; 14 of the 24 subjects
  subjects with treatment-emergent AEs: 58%
[2]; 24 subjects
  TEAE fever: 2 subjects
  TEAE headache: 3 subjects
  TEAE lethargy: 2 subjects
  TEAE loss of appetite: 1 subject
  TEAE nausea: 2 subjects
[2]; single oral dose 16 mg/kg
  deaths, SAEs, withdrawals as the result of an AE: no deaths, no SAEs, and no withdrawals as the result of an AE
  intensity of all AEs: mild or moderate intensity
[2]; single oral dose 16 mg/kg, capsule or solution
  tolerability: well tolerated
[3]
  hygroscopicity: non-hygroscopic
[3]; 75% RH for 8 days
  XRPD pattern after RH exposure: remained unchanged
[3]; exposed to 75% RH for 8 days
  deliquescence: did not deliquesce
[4]; 5 subjects
  TEAE headache: 9.8%
[4]; 8 subjects
  TEAE increased transaminases: 15.7%
[4]; 17 subjects
  Treatment-related gastrointestinal TEAEs: 33.3%
[4]; 31/51 subjects
  subjects with at least 1 related TEAE: 61%
[4]; 72 week treatment period
  Elevations in transaminases: not significant
[4]; 72 week treatment period, remained in the normal range
  Mean serum creatinine: did not change from baseline
[4]; N=3
  TEAE diarrhea: 5.9%
[4]; N=6
  TEAE flatulence: 11.8%
[4]; Total (N = 51)
  Any TEAE: 49 (96.1%) N (%)
  Creatinine increase >33% and creatinine <=ULN at 2 consecutive post-baseline visits: 2 (3.9) N (%)
  Creatinine increase >33% and creatinine >ULN at 2 consecutive post-baseline visits: 0 N (%)
  Creatinine increase and creatinine >ULN at 2 consecutive post-baseline visits: 1 (2.0) N (%)
  Serious TEAE: 5 (9.8%) N (%)
  TEAE Related to Investigational Product: 31 (60.8%) N (%)
  TEAE Requiring Discontinuation of Study Drug: 14 (27.5%) N (%)
[4]; as of Week 48
  serum creatinine levels: no trends
[4]; doses tested (8-50 mg/kg/day)
  tolerability: generally well tolerated
[4]; in four subjects, none judged related to treatment
  SAEs: 10 SAEs
[4]; in vivo
  severity of all related TEAEs: mild to moderate
[5]; single oral dose 6, 10, 16, 32 mg/kg
  tolerability: well tolerated
[5]; single oral dose 6-32 mg/kg
  clinical laboratory assessments, vital sign measurements, ECG parameters: no clinically significant changes
  deaths, SAEs, withdrawals due to AEs: no deaths, no serious adverse events (SAEs), and no withdrawals due to AEs
[5]; single subject who received 32 mg/kg, all at site of venipuncture
  TEAEs reported: Three
